According to patent US12527739B2 (Alcon Inc., priority 2022, dated 2026):
Where two headings read alike, the source gives them in different places.

Experiments:
myopia progression = conditions: higher doses; cited from earlier work
M1 muscarinic receptor = molecular target: T1, M1 muscarinic receptor (Homo sapiens, UniProt P11229); test: Muscarinic receptor radioligand displacement binding, M1
T1 sequence (P11229 1-460): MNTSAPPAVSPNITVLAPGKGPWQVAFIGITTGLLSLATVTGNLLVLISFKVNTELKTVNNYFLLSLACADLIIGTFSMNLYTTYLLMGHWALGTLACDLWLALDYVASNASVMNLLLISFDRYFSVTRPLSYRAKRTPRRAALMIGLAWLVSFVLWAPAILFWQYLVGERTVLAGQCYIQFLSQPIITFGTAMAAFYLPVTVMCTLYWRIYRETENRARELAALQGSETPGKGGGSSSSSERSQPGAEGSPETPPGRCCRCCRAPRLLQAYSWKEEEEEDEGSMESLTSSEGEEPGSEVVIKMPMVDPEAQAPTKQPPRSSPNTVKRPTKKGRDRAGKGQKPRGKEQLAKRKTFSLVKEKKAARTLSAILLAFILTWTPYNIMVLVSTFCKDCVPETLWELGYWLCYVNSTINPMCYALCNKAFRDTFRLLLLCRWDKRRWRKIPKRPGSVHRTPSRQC

M2 muscarinic receptor = molecular target: T2, M2 muscarinic receptor (Homo sapiens, UniProt P08172); test: Muscarinic receptor radioligand displacement binding, M2
T2 sequence (P08172 1-466): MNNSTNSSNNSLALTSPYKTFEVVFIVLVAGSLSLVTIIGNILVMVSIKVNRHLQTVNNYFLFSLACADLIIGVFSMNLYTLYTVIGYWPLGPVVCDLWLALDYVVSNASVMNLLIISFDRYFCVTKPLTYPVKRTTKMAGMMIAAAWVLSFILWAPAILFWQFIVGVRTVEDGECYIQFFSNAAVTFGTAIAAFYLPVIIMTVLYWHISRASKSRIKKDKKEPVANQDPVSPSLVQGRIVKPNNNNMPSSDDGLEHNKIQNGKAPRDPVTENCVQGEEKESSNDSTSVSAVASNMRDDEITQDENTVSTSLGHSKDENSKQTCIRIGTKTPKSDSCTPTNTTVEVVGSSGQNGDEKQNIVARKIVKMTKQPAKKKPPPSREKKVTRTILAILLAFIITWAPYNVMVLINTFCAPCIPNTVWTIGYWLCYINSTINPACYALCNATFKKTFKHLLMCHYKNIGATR

M3 muscarinic receptor = M3 muscarinic receptor (Homo sapiens, UniProt P20309); test: Muscarinic receptor radioligand displacement binding, M3
M4 muscarinic receptor = molecular target: T3, M4 muscarinic receptor (Homo sapiens, UniProt P08173); test: Muscarinic receptor radioligand displacement binding, M4
T3 sequence (P08173 1-479): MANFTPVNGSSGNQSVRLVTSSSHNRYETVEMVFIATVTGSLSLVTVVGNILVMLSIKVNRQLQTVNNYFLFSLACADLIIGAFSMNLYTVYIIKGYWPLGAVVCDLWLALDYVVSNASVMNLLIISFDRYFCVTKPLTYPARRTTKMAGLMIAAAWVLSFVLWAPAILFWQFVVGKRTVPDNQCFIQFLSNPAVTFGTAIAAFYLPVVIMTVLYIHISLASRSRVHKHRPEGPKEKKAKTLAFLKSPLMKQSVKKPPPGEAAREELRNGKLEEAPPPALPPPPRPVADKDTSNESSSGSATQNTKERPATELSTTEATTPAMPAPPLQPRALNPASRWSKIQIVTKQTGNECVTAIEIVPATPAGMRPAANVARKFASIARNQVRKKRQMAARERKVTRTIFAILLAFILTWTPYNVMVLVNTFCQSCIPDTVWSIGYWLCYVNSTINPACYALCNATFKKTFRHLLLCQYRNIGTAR

M5 muscarinic receptor = molecular target: T4, M5 muscarinic receptor (Homo sapiens, UniProt P08912); test: Muscarinic receptor radioligand displacement binding, M5
T4 sequence (P08912 1-532): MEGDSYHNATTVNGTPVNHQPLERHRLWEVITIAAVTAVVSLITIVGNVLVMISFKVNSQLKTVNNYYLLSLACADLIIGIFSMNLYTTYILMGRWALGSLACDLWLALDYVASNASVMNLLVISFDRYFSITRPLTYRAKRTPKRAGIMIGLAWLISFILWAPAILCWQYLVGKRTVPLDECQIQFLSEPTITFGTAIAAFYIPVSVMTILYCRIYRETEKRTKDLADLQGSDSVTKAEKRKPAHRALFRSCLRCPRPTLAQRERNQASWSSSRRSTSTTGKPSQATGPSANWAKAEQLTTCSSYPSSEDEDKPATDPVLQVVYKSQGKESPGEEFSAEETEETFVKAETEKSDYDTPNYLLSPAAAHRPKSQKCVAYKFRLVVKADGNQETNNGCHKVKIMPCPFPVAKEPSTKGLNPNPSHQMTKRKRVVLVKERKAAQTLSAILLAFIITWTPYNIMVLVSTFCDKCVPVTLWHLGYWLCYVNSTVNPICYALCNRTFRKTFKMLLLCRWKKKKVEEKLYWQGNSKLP

muscarinic receptors = test: Binding selectivity across the muscarinic receptors; conditions: M1-M5
[1] = system: form deprivation-induced myopia (FDM); test: Form deprivation-induced myopia (FDM) chick model; type: in vivo; conditions: FIG. 1 Panel A; for efficacy in FDM chick model: intravitreal injection day 2 and day 4, readout day 5; for change in refractive error (goggled eye value minus ungoggled eye value): with respect to 5% v/v ethanol solution
[2] = Methyl atropine in lowered-pH phosphate vehicles with tonicity agents; type: physicochemical
Text: Therefore, lowering the initial pH value of the vehicles was deemed necessary to: i) ensure higher solubility; and ii) reach an ophthalmically-acceptable target pH (5-8). Also, the addition of tonicity agents was needed to reach the acceptable target range of 280-320 mOsm/kg (Table 4 and Table 5).

[3] = pH adjustment of methyl atropine and benzyl atropine solutions, HPLC analysis; type: physicochemical; conditions: for Actual concentration (HPLC): after pH adjustment; for Initial pH: before pH adjustment
[4] = 5 min, pH 7.4
[5] = Solubility screen in two simple vehicles, pH 7.4; conditions: for pH of the formulation: pH 7.4
[6] = 0.5% Sodium Chloride in 20 mM Phosphate Buffer, pH 2.71
[7] = 3% Mannitol in 20 mM Phosphate Buffer, pH 4.8
[8] = 3.7% Mannitol in 20 mM Phosphate Buffer, pH 2.82
[9] = […] Sodium Choride in 20 mM Phosphate Buffer, pH 4.8

M3 muscarinic receptor, sequence (P20309 whole entry): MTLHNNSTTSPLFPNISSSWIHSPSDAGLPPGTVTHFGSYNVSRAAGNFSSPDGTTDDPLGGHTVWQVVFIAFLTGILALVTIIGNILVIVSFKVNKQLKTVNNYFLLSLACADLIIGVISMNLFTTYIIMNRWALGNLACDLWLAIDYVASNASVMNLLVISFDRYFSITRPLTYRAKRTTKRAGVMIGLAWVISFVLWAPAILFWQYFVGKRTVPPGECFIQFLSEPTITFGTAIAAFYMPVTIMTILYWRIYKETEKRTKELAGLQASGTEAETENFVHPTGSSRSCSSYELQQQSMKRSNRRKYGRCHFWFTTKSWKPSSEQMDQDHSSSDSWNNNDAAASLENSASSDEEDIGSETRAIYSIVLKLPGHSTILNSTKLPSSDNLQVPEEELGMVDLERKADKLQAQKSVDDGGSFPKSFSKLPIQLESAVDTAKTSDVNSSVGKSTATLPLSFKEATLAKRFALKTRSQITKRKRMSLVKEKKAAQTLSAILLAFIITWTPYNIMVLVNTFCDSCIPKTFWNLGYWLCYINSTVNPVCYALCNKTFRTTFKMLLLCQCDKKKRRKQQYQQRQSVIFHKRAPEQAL

Q: With `CN1[C@@H]2CC[C@H]1C[C@@H](OC(=O)C(CO)c1ccccc1)C2` (mixture of isomers) [Atropine, atropine] as the compound, how does the side effects (myopia progression) read?
A: The side effects was “pupillary dilation and light sensitivity”.

Q: For `C[N+]1(C)[C@@H]2CC[C@H]1C[C@@H](OC(=O)C(CO)c1ccccc1)C2` (stereo partly shown) [Methyl Atropine, methyl atropine], which Ki (M1 muscarinic receptor) is on record?
A: The Ki was 3.4 nM.

Q: And the Ki (M2 muscarinic receptor)?
A: The Ki was 7.8 nM.

Q: What about the Ki (M3 muscarinic receptor) of the same compound?
A: The Ki was 2.4 nM.

Q: What about the Ki (M4 muscarinic receptor) of the same compound?
A: Its Ki is 1.2 nM.

Q: What about the Ki (M5 muscarinic receptor) of the same compound?
A: Its Ki is 2.2 nM.

Q: What about the “selectivity of binding to the muscarinic receptors” value (muscarinic receptors) of the same compound?
A: Its value is “non-selective binding”.

Q: And the “efficacy in FDM chick model” value [1]?
A: Its value is “effective”.

Q: What about the “change in refractive error (goggled eye value minus ungoggled eye value)” value [1] of the same compound?
A: Its value is “significantly decreased”.

Q: What about the Actual Concentration [2, 6] of the same compound?
A: The Actual Concentration was 5.38 mg/g.

Q: And the “Final pH” value [2, 6]?
A: The value was 6.7.

Q: And the Osmolality [2, 6]?
A: Its Osmolality is 202.5 mOsm/kg.

Q: What about the Actual Concentration [2, 7] of the same compound?
A: Its Actual Concentration is 5.62 mg/g.

Q: And the “Final pH” value [2, 7]?
A: Its value is 8.8.

Q: And the Osmolality [2, 7]?
A: Its Osmolality is 217 mOsm/kg.

Q: What about the Actual Concentration [2, 8] of the same compound?
A: Its Actual Concentration is 5.14 mg/g.

Q: What about the “Final pH” value [2, 8] of the same compound?
A: Its value is 6.8.

Q: And the Osmolality [2, 8]?
A: Its Osmolality is 262.5 mOsm/kg.

Q: What about the Actual Concentration [2, 9] of the same compound?
A: Its Actual Concentration is 5.14 mg/g.

Q: And the “Final pH” value [2, 9]?
A: The value was 8.0.

Q: What about the Osmolality [2, 9] of the same compound?
A: The Osmolality was 182.5 mOsm/kg.

Q: And the “Actual concentration (HPLC)” value ([3]; 30 mM Phosphate Buffer, pH 7.4)?
A: The value was 4.61 mg/g.

Q: What about the “Initial pH” value ([3]; 30 mM Phosphate Buffer, pH 7.4) of the same compound?
A: Its value is 8.1.

Q: And the “Actual concentration (HPLC)” value ([3]; Phosphate Buffered Saline)?
A: The value was 4.89 mg/g.

Q: What about the “Initial pH” value ([3]; Phosphate Buffered Saline) of the same compound?
A: Its value is 9.3.

Q: What about the Actual Concentration [4] of the same compound?
A: Its Actual Concentration is 1.63 mg/g.

Q: What about the “pH of the formulation” value ([5]; 30 mM Phosphate Buffer) of the same compound?
A: Its value is 9.2.

Q: And the “pH of the formulation” value ([5]; Phosphate Buffered Saline)?
A: The value was 9.6.

Q: What about the “dissolution in vehicle (in words)” value ([5]; both vehicles: 30 mM phosphate buffer pH 7.4 and phosphate-buffered saline pH 7.4) of the same compound?
A: The value was “did not entirely dissolve”.

Q: Which results are given for `CN1C2CCC1CC(OC(=O)C(F)(CO)c1ccccc1)C2` (stereo not shown) [fluoro-atropine]?
A: efficacy in FDM chick model [1]: effective; change in refractive error (goggled eye value minus ungoggled eye value) [1]: significantly decreased
